# Biological target: BTK (Homo sapiens, UniProt Q06187)
# Experiment: biochemical
# Details: read-out: BTK inhibition (%), 0.75 uM BTK, […] probe 3l, 15 min preincubation
# Sequence of BTK (Q06187 402-655 limits assumed): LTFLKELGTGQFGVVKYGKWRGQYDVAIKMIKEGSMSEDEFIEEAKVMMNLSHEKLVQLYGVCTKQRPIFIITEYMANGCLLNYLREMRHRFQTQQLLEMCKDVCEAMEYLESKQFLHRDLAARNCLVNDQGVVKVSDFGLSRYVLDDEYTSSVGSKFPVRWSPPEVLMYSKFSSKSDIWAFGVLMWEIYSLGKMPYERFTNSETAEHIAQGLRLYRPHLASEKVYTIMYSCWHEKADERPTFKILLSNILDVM
row,Structure (SMILES),inhibition at 10 µM [%]
1,CC(=O)Nc1ccccc1 [PCM-0090657],-14.5
2,CC(C)=CCC[C@](C)(O)[C@H]1CC[C@]2(C)[C@@H]1[C@H](O)C[C@@H]1[C@@]3(C)CC[C@H](O)C(C)(C)[C@@H]3[C@@H](O[C@@H]3O[C@H](CO)[C@@H](O)[C@H](O)[C@H]3O[C@@H]3O[C@@H](C)[C@H](O)[C@@H](O)[C@H]3O)C[C@]12C [PCM-0216405],-5.4
3,C=C1/C(=C\C=C2/CCC[C@]3(C)[C@@H]([C@H](C)/C=C/[C@H](C)C(C)C)CC[C@@H]23)C[C@@H](O)C[C@@H]1O [PCM-0214626],4.1
4,Nc1ccc(O)c(C(=O)O)c1 [PCM-0086222],-9
5,O=C(O)C1=C[C@@H](O)[C@@H](O)[C@H](O)C1 [PCM-0094809],10.1
6,CCn1cc(-c2cccc(C(F)(F)F)c2)c2sc(C(N)=NC3CCS(=O)(=O)CC3)cc2c1=O [PCM-0215627],2.3
7,O=C1C(c2c(O)[nH]c3ccccc23)=Nc2ccccc21 [PCM-0094833],11
8,NS(=O)(=O)c1cc2c(cc1Cl)NC=NS2(=O)=O [PCM-0064466],-10.1
9,COc1cc(/C=C/C(=O)O[C@H]2CC[C@]34C[C@]35CC[C@]3(C)[C@@H]([C@H](C)CCC=C(C)C)CC[C@@]3(C)[C@@H]5CC[C@H]4C2(C)C)ccc1O [PCM-0214964],16.3
10,Cc1cc(=O)n(-c2ccccc2)n1C [PCM-0085809],13.8
11,CC(C)(CO)[C@@H](O)C(=O)NCCC(=O)O [PCM-0214814],7
12,CCCCC(=O)OCC(=O)[C@H]1[C@H](C)C[C@H]2[C@@H]3C[C@H](F)C4=CC(=O)C=C[C@]4(C)[C@@]3(F)[C@@H](O)C[C@@]21C [PCM-0216248],2.3
13,CC(C)(C)NC(=O)N[C@H](C(=O)N1C[C@H]2[C@@H]([C@H]1C(=O)NC(CC1CCC1)C(=O)C(N)=O)C2(C)C)C(C)(C)C (stereo partly drawn) [PCM-0214929],8.6
14,O=C(NC1(c2ccccc2)CC1)c1c(CN2CCC(N3CCCCC3)CC2)c(-c2cccc(C(F)(F)F)c2)nc2cc(Br)ccc12 [PCM-0215818],36.3
15,C=C1C(=O)O[C@@H]2C[C@@]3(C)CCCC(=C)[C@@H]3C[C@H]12 [PCM-0214959],15.9
16,O=C(O)c1ccc2c3c1cccc3c(=O)n1c3ccccc3nc21 [PCM-0215754],13.8
17,COc1cc(C=O)c([N+](=O)[O-])cc1OC [PCM-0216182],-13.9
18,Oc1cc(O)c2c(c1)O[C@H](c1ccc(O)c(O)c1)[C@@H](O)C2 [PCM-0064631],37.4

row,Structure (SMILES),inhibition at 10 µM [%]
1,Cc1ccc(-c2cc(C(F)(F)F)nn2-c2ccc(S(N)(=O)=O)cc2)cc1 [PCM-0065035],22.8
2,c1cc(CN2CCCNCCNCCCNCC2)ccc1CN1CCCNCCNCCCNCC1 [PCM-0095456],6.8
3,O=C[C@H](O)[C@@H](O)[C@H](O)CO [PCM-0214661],-12.5
4,CC1(C)CCC(CN2CCN(c3ccc(C(=O)NS(=O)(=O)c4ccc(NCC5CCOCC5)c([N+](=O)[O-])c4)c(Oc4cnc5[nH]ccc5c4)c3)CC2)=C(c2ccc(Cl)cc2)C1 [PCM-0095632],-5.4
5,COc1ccc(CCC(=O)Nc2nc3ccc(Cl)cc3s2)cc1OC [PCM-0095584],-0.8
6,N#C[C@@H]1CCCN1C(=O)CNC12CC3CC(CC(O)(C3)C1)C2 [PCM-0095499],1.6
7,Cc1ccc(=O)n(-c2ccccc2)c1 [PCM-0064803],20.7
8,CC1(C)C[C@@H]1C(=O)N/C(=C\CCCCSC[C@H](N)C(=O)O)C(=O)O [PCM-0216257],-10
9,COc1cc(C(=O)O)ccc1O [PCM-0216103],3.1
10,COc1ccc(C(=O)CC2(O)C(=O)Nc3c(Cl)ccc(Cl)c32)cc1 (stereo not drawn) [PCM-0215405],8.5
11,COc1ccc2c3c1O[C@H]1C[C@@H](O)C=C[C@@]31CCN(C)C2 [PCM-0086015],-17.1
12,O=C(O)c1cc(C(F)(F)F)ccc1N1CC[C@H](OCc2ccccn2)C1 [PCM-0215430],8.5
13,Cn1nnc(-c2ccc(-c3ccc(N4C[C@H](CO)OC4=O)cc3F)cn2)n1 [PCM-0216559],-12.4
14,COc1ccc2ccc(=O)oc2c1CC=C(C)C [PCM-0094564],-70
15,O=C(O)c1cc(C(=O)O)c2c(n1)C(=O)C(=O)c1cc(C(=O)O)[nH]c1-2 [PCM-0216638],-0.8
16,O=C(c1ccc(Cl)cc1)N(Cc1ccccc1)C1CCCCC1 [PCM-0215646],20.1
17,O=C(Nc1cccc(Nc2ncc(Br)c(NCCc3cnc[nH]3)n2)c1)N1CCCC1 [PCM-0095062],85.5
18,CN(C)CCc1ccc(O)cc1 [PCM-0094832],-21.8

# — publication PMC8041284, “Tunable Methacrylamides for Covalent Ligand Directed Release Chemistry” (Journal of the American Chemical Society, 2021)
